The values that follow come from publication doi:10.1101/2021.10.07.463234v2 (biorxiv, 2021).

Each structure is given as a SMILES string. Structures can show the parent of a compound that is named as a salt. Numbered stars: 1 amine (or outer) side, 2 acyl side, 3 side chain; on linkers, the order of the positions; unused ones are H or OH. Bridge positions count the residues as written; N and C are the ends. Square brackets hold non-standard residues; d marks the D form. Peptide text beside a SMILES is read from it. * marks the point of attachment. hTyr(3S-OH,4S-OH,3'-OSO3H) = N[C@H](C(=O)O)[C@H](O)[C@@H](O)c1ccc(O)c(OS(=O)(=O)O)c1; Orn(4R-OH,5R-OH) = O=C([C@H](C[C@@H](O)[C@@H](O)N[*:3])N[*:1])[*:2]; Pro(3S-OH,4S-Me) = C[C@H]1CN[C@H](C(=O)O)[C@H]1O; X1 = CCCCCOc1ccc(-c2cc(-c3ccc(C(=O)*)cc3)no2)cc1; Gln(3R-OH) = NC(=O)C[C@@H](O)[C@H](N)C(=O)O; Hyp = O=C(O)[C@@H]1C[C@@H](O)CN1

The target of the first assay is SARS-CoV-2 Mac1 (Severe acute respiratory syndrome coronavirus 2, UniProt P0DTD1). The assay can be described thus: biochemical. As to conditions: 100 µM; inhibitor.
Consider `COc1c(N2C[C@@H]3CCCN[C@@H]3C2)c(F)cc2c(=O)c(C(=O)O)cn(C3CC3)c12` [Moxifloxacin HCl], for which the “%inhibition” value is reported as 0%.

As for `COc1c(N2C[C@@H]3CCCN[C@@H]3C2)c(F)cc2c(=O)c(C(=O)O)cn(C3CC3)c12` [Moxifloxacin], the “%inhibition” value was found to be 6.66%.

Take `C/C(=C\C(=O)OCCCCCCCCC(=O)O)C[C@@H]1OC[C@H](C[C@@H]2O[C@H]2[C@@H](C)[C@H](C)O)[C@@H](O)[C@H]1O` [Mupirocin calcium]: the “%inhibition” value worked out at 3.887%.

Regarding `C/C(=C\C(=O)OCCCCCCCCC(=O)O)C[C@@H]1OC[C@H](C[C@@H]2O[C@H]2[C@@H](C)[C@H](C)O)[C@@H](O)[C@H]1O` [Mupirocin], the “%inhibition” value worked out at 0%.

Regarding `COc1ccc2[nH]c([S@@+]([O-])Cc3ncc(C)c(OC)c3C)nc2c1` [NEXIUM (esomeprazole magnesium)], the “%inhibition” value is on record as 21.09%.

`COc1ccccc1N1CCN(CC(O)COc2cccc3ccccc23)CC1` (stereo not shown) [Naftopidil DiHCl]: the “%inhibition” value turned out to be 0%.

As for `COc1ccccc1N1CCN(CC(O)COc2cccc3ccccc23)CC1` (stereo not shown) [Naftopidil], the “%inhibition” value amounted to 1.252%.

Still in this assay, the particulars now being: read-out: %inhibition.
In the case of `Cc1ncc([N+](=O)[O-])n1CCO` [Metronidazole], the inhibition at 100 µM is 16.9%.

For `CC(C)(C(=O)c1cccnc1)c1cccnc1` [Metyrapone], the inhibition at 100 µM was determined as 5.33%.

In the case of `CC[C@H](C)C(=O)O[C@H]1CCC=C2C=C[C@H](C)[C@H](CC[C@@H]3C[C@@H](O)CC(=O)O3)[C@H]21` [Mevastatin], the inhibition at 100 µM is 12.1%.

`Cc1cccc(C)c1OCC(C)N` (stereo not shown) [Mexiletine HCl]: the inhibition at 100 µM amounted to 9.05%.

On to `CC1(C)S[C@@H]2[C@H](NC(=O)[C@H](NC(=O)N3CCN(S(C)(=O)=O)C3=O)c3ccccc3)C(=O)N2[C@H]1C(=O)O` [Mezlocillin Sodium], for which the inhibition at 100 µM came out at 6.75%.

In the case of `CCCCCOc1ccc(-c2cc(-c3ccc(C(=O)N[C@H]4C[C@@H](O)[C@@H](O)NC(=O)[C@@H]5[C@@H](O)[C@@H](C)CN5C(=O)[C@H]([C@H](O)CC(N)=O)NC(=O)[C@H]([C@H](O)[C@@H](O)c5ccc(O)c(OS(=O)(=O)O)c5)NC(=O)[C@@H]5C[C@@H](O)CN5C(=O)[C@H]([C@@H](C)O)NC4=O)cc3)no2)cc1` [Micafungin Sodium] (X1-[Orn(4R-OH,5R-OH)]T[Hyp][hTyr(3S-OH,4S-OH,3'-OSO3H)][Gln(3R-OH)][Pro(3S-OH,4S-Me)]; lactam 1-C), the inhibition at 100 µM worked out at 0%.

For `CCC(=O)O[C@@H]1CC(=O)O[C@H](C)C/C=C/C=C/[C@H](O)[C@H](C)C[C@H](CC=O)[C@H](O[C@@H]2O[C@H](C)[C@@H](O[C@H]3C[C@@](C)(O)[C@@H](OC(=O)CC)[C@H](C)O3)[C@H](N(C)C)[C@H]2O)[C@H]1OC` [Midecamycin], the inhibition at 100 µM came out at 5.18%.

On to `CC#C[C@]1(O)CC[C@H]2[C@@H]3CCC4=CC(=O)CCC4=C3[C@@H](c3ccc(N(C)C)cc3)C[C@@]21C` [Mifepristone], for which the inhibition at 100 µM is 8.31%.

As to `OCCN1C[C@H](O)[C@@H](O)[C@H](O)[C@H]1CO` [Miglitol], the inhibition at 100 µM worked out at 11%.

`Cc1[nH]c(=O)c(C#N)cc1-c1ccncc1` [Milrinone]: the inhibition at 100 µM was 0%.

Regarding `CCCCCCCCCCCCCCCCOP(=O)([O-])OCC[N+](C)(C)C` [Miltefosine], the inhibition at 100 µM came to 0%.

Turning to `Cc1cc(-c2ccccc2)nnc1NCCN1CCOCC1` [Minaprine dihydrochloride], the inhibition at 100 µM was found to be 2.13%.

For `CN(C)c1ccc(O)c2c1C[C@H]1C[C@H]3[C@H](N(C)C)C(O)=C(C(N)=O)C(=O)[C@@]3(O)C(O)=C1C2=O` [Minocycline HCl], the inhibition at 100 µM came out at 0%.

As to `Nc1cc(N2CCCCC2)nc(N)[n+]1OS(=O)(=O)[O-]` [Minoxidil sulphate], the inhibition at 100 µM came to 19%.

On to `Nc1nc(CC(=O)Nc2ccc(CCNC[C@H](O)c3ccccc3)cc2)cs1` [Mirabegron], for which the inhibition at 100 µM came to 0%.

Regarding `CN1CCN2c3ncccc3Cc3ccccc3C2C1` (stereo not shown) [Mirtazapine], the inhibition at 100 µM is 7.99%.

As for `CO[C@@]12[C@H](COC(N)=O)C3=C(C(=O)C(C)=C(N)C3=O)N1C[C@@H]1N[C@@H]12` [Mitomycin C], the inhibition at 100 µM was determined as 10.1%.

With `Clc1ccc(C(c2ccccc2Cl)C(Cl)Cl)cc1` (stereo not shown) [Mitotane], the inhibition at 100 µM is 46.2%.

Regarding `O=C1c2c(O)ccc(O)c2C(=O)c2c(NCCNCCO)ccc(NCCNCCO)c21` [Mitoxantrone 2HCl], the inhibition at 100 µM stood at 74.8%.

As to `NC(=O)c1ncn([C@@H]2O[C@H](CO)[C@@H](O)[C@H]2O)c1O` [Mizoribine], the inhibition at 100 µM was 0%.

Consider `Nc1ccccc1NC(=O)c1ccc(CNc2nccc(-c3cccnc3)n2)cc1` [Mocetinostat (MGCD0103)], for which the inhibition at 100 µM is 7.18%.

Consider `O=C(NCCN1CCOCC1)c1ccc(Cl)cc1` [Moclobemide (Ro 111163)], for which the inhibition at 100 µM was 0%.

`CCOC(=O)[C@H](CCc1ccccc1)N[C@@H](C)C(=O)N1Cc2cc(OC)c(OC)cc2C[C@H]1C(=O)O` [Moexipril HCl]: the inhibition at 100 µM came out at 0%.

For `CCOC(=O)CC(=O)N1CCSC1COc1ccccc1OC` (stereo not shown) [Moguisteine], the inhibition at 100 µM was 13%.

With `O=c1c(-n2ccnn2)c[nH]n1-c1cc(N2CCOCC2)ncn1` [Molidustat (BAY 85-3934)], the inhibition at 100 µM amounted to 19.3%.

For `CCc1c(C)[nH]c2c1C(=O)C(CN1CCOCC1)CC2` (stereo not shown) [Molindone hydrochloride], the inhibition at 100 µM was 0%.

Consider `CCOC(=O)[N-]c1c[n+](N2CCOCC2)no1` [Molsidomine], for which the inhibition at 100 µM is 0%.

In the case of `C[C@@H]1C[C@H]2[C@@H]3CCC4=CC(=O)C=C[C@]4(C)[C@@]3(Cl)[C@@H](O)C[C@]2(C)[C@@]1(OC(=O)c1ccco1)C(=O)CCl` [Mometasone furoate], the inhibition at 100 µM came out at 7.49%.

With `Oc1ccc(OCc2ccccc2)cc1` [Monobenzone], the inhibition at 100 µM amounted to 0%.

In the case of `N=C(N)NC(=N)N1CCOCC1` [Moroxydine HCl], the inhibition at 100 µM is 0.197%.

`CCOc1cc(N)c(Cl)cc1C(=O)NCC1CN(Cc2ccc(F)cc2)CCO1` (stereo not shown) [Mosapride]: the inhibition at 100 µM was determined as 0%.

Regarding `CCCN(CCC)C(=O)C1=Cc2ccc(-c3ccc(C(=O)N4CCCC4)cc3)cc2N=C(N)C1` [Motolimod (VTX-2337)], the inhibition at 100 µM was 0%.

For `CO/N=C1\C[C@]2(C[C@@H]3C[C@@H](C/C=C(\C)C[C@@H](C)/C=C/C=C4\CO[C@@H]5[C@H](O)C(C)=C[C@@H](C(=O)O3)[C@]45O)O2)O[C@H](/C(C)=C/C(C)C)[C@H]1C` [Moxidectin], the inhibition at 100 µM turned out to be 7.63%.

With `COc1nc(C)nc(Cl)c1NC1=NCCN1` [Moxonidine], the inhibition at 100 µM stood at 0%.

Take `Cc1ccccc1C(=O)Nc1ccc(C(=O)N2CCCC(N(C)C)c3ccccc32)cc1` (stereo not shown) [Mozavaptan]: the inhibition at 100 µM stood at 21.9%.

For `FC(F)(F)c1ccc(/C=C/c2nc(COc3ccc(CCCCn4ccnn4)cc3)co2)cc1` [Mubritinib (TAK 165)], the inhibition at 100 µM was found to be 0%.

For `COc1c(C)c2c(c(O)c1C/C=C(\C)CCC(=O)OCCN1CCOCC1)C(=O)OC2` [Mycophenolate Mofetil], the inhibition at 100 µM was 0%.

For `COc1c(C)c2c(c(O)c1C/C=C(\C)CCC(=O)O)C(=O)OC2` [Mycophenolic acid], the inhibition at 100 µM was 0%.

In the case of `COc1ccc2cc(CCC(C)=O)ccc2c1` [Nabumetone], the inhibition at 100 µM came out at 0%.

On to `CC1CCc2c(N3CCC(O)CC3)c(F)cc3c(=O)c(C(=O)O)cn1c23` (stereo not shown) [Nadifloxacin], for which the inhibition at 100 µM came to 0%.

Consider `N=C(N)Nc1ccc(C(=O)Oc2ccc3cc(C(=N)N)ccc3c2)cc1` [Nafamostat Mesylate], for which the inhibition at 100 µM came out at 0%.

In the case of `CCOc1ccc2ccccc2c1C(=O)N[C@@H]1C(=O)N2[C@@H]1SC(C)(C)[C@@H]2C(=O)O` [Nafcillin Sodium], the inhibition at 100 µM was determined as 0%.

On to `CCn1cc(C(=O)O)c(=O)c2ccc(C)nc21` [Nalidixic acid], for which the inhibition at 100 µM came to 0%.

As to `C=C1CC[C@@]2(O)[C@H]3Cc4ccc(O)c5c4[C@@]2(CCN3CC2CC2)[C@H]1O5` [Nalmefene HCl], the inhibition at 100 µM stood at 0%.

In the case of `O=C1CC[C@@]2(O)[C@H]3Cc4ccc(O)c5c4[C@@]2(CCN3CC2CC2)[C@H]1O5` [Naltrexone HCl], the inhibition at 100 µM was found to be 0%.

Turning to `CC(=O)c1cc2c(o1)C(=O)c1ccccc1C2=O` [Napabucasin], the inhibition at 100 µM came out at 6.24%.

Take `c1ccc2c(CC3=NCCN3)cccc2c1` [Naphazoline HCl]: the inhibition at 100 µM was 8.42%.

`COc1ccc2cc([C@H](C)C(=O)O)ccc2c1` [Naproxen Sodium]: the inhibition at 100 µM was determined as 0%.

`CNS(=O)(=O)CCc1ccc2[nH]cc(C3CCN(C)CC3)c2c1` [Naratriptan HCl]: the inhibition at 100 µM was found to be 0%.

For the compound `C[C@@H]1C/C=C/C=C/C=C/C=C/[C@H](O[C@@H]2O[C@H](C)[C@@H](O)[C@H](N)[C@@H]2O)C[C@@H]2O[C@](O)(C[C@@H](O)C[C@H]3O[C@@H]3/C=C/C(=O)O1)C[C@H](O)[C@H]2C(=O)O` [Natamycin], the inhibition at 100 µM amounted to 0%.

On to `CC(C)[C@H]1CC[C@H](C(=O)N[C@H](Cc2ccccc2)C(=O)O)CC1` [Nateglinide], for which the inhibition at 100 µM came out at 0%.

Turning to `O[C@H](CNC[C@@H](O)[C@H]1CCc2cc(F)ccc2O1)[C@@H]1CCc2cc(F)ccc2O1` [Nebivolol HCl], the inhibition at 100 µM was 0%.

For the compound `CCc1nn(CCCN2CCN(c3cccc(Cl)c3)CC2)c(=O)n1CCOc1ccccc1` [Nefazodone hydrochloride], the inhibition at 100 µM amounted to 14%.

For `Cc1cccc(C)c1NC(=O)CN1CCCC1=O` [Nefiracetam], the inhibition at 100 µM was 8.32%.

Regarding `CN1CCOC(c2ccccc2)c2ccccc2C1` (stereo not shown) [Nefopam HCl], the inhibition at 100 µM was determined as 0%.

Consider `COc1nc(N)nc2c1ncn2[C@@H]1O[C@H](CO)[C@@H](O)[C@@H]1O` [Nelarabine], for which the inhibition at 100 µM turned out to be 50.5%.

`Cc1c(O)cccc1C(=O)N[C@@H](CSc1ccccc1)[C@H](O)CN1C[C@H]2CCCC[C@H]2C[C@H]1C(=O)NC(C)(C)C` [Nelfinavir Mesylate]: the inhibition at 100 µM came out at 0.155%.

One may read the %inhibition as the change of the read-out against control, counted positive when it falls. Lower therefore signals a weak effect. As usually defined, the inhibition is the share of the control response that was lost under treatment.
